In assay [1] the test system is normal human dermal fibroblasts. Description: Production of progerin in monolayer cultures of normal human dermal fibroblasts (ELISA). It is filed as cell-based. The following applies: for Progerin % DMSO / Progerin Average / Progerin, individual values / Progerin Difference (%): 96 hours; for Progerin Difference (%): vs DMSO; for neo synthesis of progerin: under the retained experimental conditions. The text has this: In order to study the influence of the compounds of the invention on the concentration of progerin in the cells, the assay method described by C. Verdy, J.-E. Branka and N. Mekideche in <<Quantitative assessment of lactate and progerine production in normal human cutaneous cells during normal ageing: effect of an alaria esculenta extract>>, Int. J. Cosmetic Science, 2011, 1-5, has been used.
(§1) The test system consists of monolayers of adult normal human dermal fibroblasts obtained by cultivating cells collected from a tummy tuck carried out on a person.
Insulin at 10 nM has been used as a reference product in this study. […]
(§2) The compound to be tested is solubilized in 1 mg/ml in DMSO, then diluted in the cells incubation medium, with a constant concentration of 0.1% (v/v) in DMSO.
Upon completion of the incubation period, on the one hand, the progerin has been quantified in the cellular lysates (obtained by ultrasonic action) through a sensitive and specific ELISA assay, and on the other hand, the proteins that are contained in the cellular lysates have been quantified by a spectrophotometric method (Bradford method—Bradford M. (1976) Anal. Biochem., 72, 248-254).
(§3) The statistical significance of the differences that have been observed between the <<Control>> and the <<reference product>> conditions, has been assessed through a Student test. The statistical significance of the differences that have been observed between the <<Check>> and the <<test products>> conditions, has been assessed through a one-way analysis of variance (One Way ANOVA) followed by a Holm-Sidak test (*:p<0.05).
Background: An ELISA detects its analyte on a solid surface through an enzyme-linked reagent.

In assay [2] the test system is explants of adipose tissues. Briefly: Slimming effect: glycerol released in culture medium of adipose tissue explants. It is filed as cell-based, human. The method, then: The activity of the compounds of the invention on the adipocytes has been assessed. To do so, tests have been carried out on explants of adipose tissues that are kept alive according to the following experimental protocol. The products to be tested are introduced in the culture medium. After 9 days of treatment, the activity is assessed through an assay of the glycerol released in the culture medium. In order to be able to compare the potential activity of the molecules, caffeine (Sigma ref C-0750 batch 127F0396), which is known for its activity on the adipocytes (Studlar M. […] The explants are prepared from a tummy tuck ([…]-AB-40) carried out on a donor. 54 explants of tissues have been prepared and kept alive in a medium which is supplemented with penicillin/streptomycin antibiotics (Gibco ref 15140 batch 918578) at 37° C. and with 5% of CO2. The treatment has been carried out, on 3 explants, by incorporating 100 μl of the product (which is in turn at a 2% concentration in the adequate solvent, DMSO) in 2 ml of the culture medium on days J0, J2, J3, J5 and J7. Caffeine has been diluted to the desired concentration in the culture medium on these same days. The control explants have undergone no treatment. On J0, the 3 explants have been collected and frozen at -80° C. On J9, the remaining explants have been collected and preserved under the same conditions. The extraction of lipids from the culture medium has been carried out according to a tested procedure. The assay of the glycerol of the culture medium has been carried out using a glycerol assay kit (Megazyme, K-GROL) in the form of 96-well microplates and reading has been made at 340 nm with a Tecam Infinite M200 microplate reader associated to the Magellan software.

Another assay deals with normal human melanocytes. Description: Melanin production of normal human melanocytes (conditioned fibroblast media). It is filed as cell-based. The following applies: 250 μM, melanocytes 72 hours. The text has this:
These experiments allowed to show the capability of the compounds of the invention to modulate the melanin production of normal human melanocytes cultivated in D.K.K. fibroblast monolayers.
Monolayers of normal human dermal fibroblasts have been obtained by cultivating cells collected from a tummy tuck carried out on a person. For carrying out the tests, these cells have been cultivated until obtaining confluent monolayers. Monolayers of normal human melanocytes have been obtained by cultivating cells collected from a tummy tuck carried out on a person. For carrying out the tests, these cells have been cultivated until obtaining non-confluent monolayers. […]
Afterwards, the melanocytes have been incubated for 72 hours at 37° C. in a humid atmosphere with 5% of CO2, in the absence (culture medium alone) or in the presence of kojic acid at 250 μM or of conditioned fibroblast media (see above) diluted to 1/10th in the culture medium of the melanocytes.
The active ingredient has been solubilized in DMSO (Dimethyl Sulfoxide). Afterwards, the dilutions have been carried out in the cells incubation medium with a constant concentration of 0.01% (v/v) of DMSO.
Upon completion of the incubation period, the intracellular melanin content has been quantified in the melanocytic lysates by a spectrophotometric measurement at 405 nm.
Upon completion of the incubation period, the proteins contained in the cellular lysates have been quantified by a spectrophotometric method (Bradford method).
The results are given in the form of μg of intracellular melanin per mg of total proteins of the cellular layer (averages+/− the standard deviation, S.D.).
The statistical significance of the differences observed between the <<Control>> and the <<test product>> conditions, has been assessed through a one-way analysis of variance (One Way ANOVA) followed by a Holm-Sidak test (*:p<0.05).

The test system of assay [3] is normal human dermal fibroblasts. Briefly: Production of type I pro-collagen in monolayer cultures of normal human dermal fibroblasts (E.I.A.). It is filed as cell-based. The following applies: 48 hours; for Procollagen Difference (%): vs DMSO. The method, then: as §1
The used reference activator is the Transforming Growth Factor β (TGF-β) at 1 ng/ml. […]
as §2
Upon completion of the incubation period, the type I pro-collagen contained in the fibroblasts incubation media has been quantified using a sensitive and specific E.I.A. kit.
Upon completion of the incubation period, the proteins contained in the cellular lysates have been quantified by a spectrophotometric method (Bradford method—Bradford M. (1976) Anal. Biochem., 72, 248-254).
as §3
The results are given in the form of μg of type I pro-collagen per mg of protein (average+/− the standard deviation, S.D.) and are reported in the following Table 5.

“And” between values parts separate entries of the source, which are not always exact repeats. Identical values can stand only once. Marks after values point to notes of the source that are not given here.

For the molecule `COc1cc(/C=C/C(=O)Oc2ccc(CCO)cc2)cc(OC)c1OC(C)=O` [Compound 2], in assay [1] (10 ng/ml), the “Progerin % DMSO” value is given as 25.8%; the “Progerin Average” value is reported as 286.9* ng/mg of protein; the “Progerin, individual values” was 233.7 ng/mg of protein and 353.5 ng/mg of protein and 273.6 ng/mg of protein; the “Progerin Difference (%)” value is −74.2%. Also, in assay [1] (100 ng/ml), the “Progerin % DMSO” value came out at 23.1%; the “Progerin Average” value is 256.4* ng/mg of protein; the “Progerin, individual values” was 170.6 ng/mg of protein and 196.3 ng/mg of protein and 402.4 ng/mg of protein; the “Progerin Difference (%)” value was −76.9%. Moreover, in assay [1] (500 ng/ml), the “Progerin % DMSO” value is on record as 26.4%; the “Progerin Average” value is recorded as 293* ng/mg of protein; the “Progerin, individual values” was 300.1 ng/mg of protein and 328.4 ng/mg of protein and 250.5 ng/mg of protein; the “Progerin Difference (%)” value was −73.6%. The “neo synthesis of progerin” value in assay [1] is “significantly decrease”.
On to `Cn1c(=O)c2c(ncn2C)n(C)c1=O` [Caffeine, caffeine, reference compound], for which, in assay [2] (after 9 days of treatment), the “Glycerol % in comparison with caffeine” value worked out at 100%. For the same molecule, in assay [2] (glycerol released in culture medium after 9 days, 100 μl of 2% product in DMSO in 2 ml medium on J0, J2, J3, J5, J7, 3 explants), the “Glycerol Average” value was 0.096 mg/mL.
For `O=c1cc(CO)occ1O` [Kojic acid, kojic acid, reference compound], in the assay with normal human melanocytes, the Melanin/Proteins % control is given as 86.6* %; the “Melanin/Proteins Average” value stood at 14.0 µg/mg; the “Melanin/Proteins, individual values” was 14.3 µg/mg and 13.4 µg/mg and 14.1 µg/mg.
As for `COc1cc(/C=C/C(=O)Oc2coc(CO)cc2=O)cc(OC)c1OC(C)=O` [Compound 10], in assay [1] (50 ng/ml), the “Progerin % DMSO” value turned out to be 23.8%; the “Progerin Average” value is on record as 264.1* ng/mg of protein; the “Progerin, individual values” is 274.9 ng/mg of protein and 225.1 ng/mg of protein and 292.3 ng/mg of protein; the “Progerin Difference (%)” value is on record as −76.2%. In addition, in assay [1] (500 ng/ml), the “Progerin % DMSO” value is 26.1%; the “Progerin Average” value is given as 289.6* ng/mg of protein; the “Progerin, individual values” was 301.7 ng/mg of protein and 296.1 ng/mg of protein and 271.0 ng/mg of protein; the “Progerin Difference (%)” value is −73.9%. In assay [1] (5000 ng/ml), the “Progerin % DMSO” value turned out to be 26.2%; the “Progerin Average” value is 291.4* ng/mg of protein; the “Progerin, individual values” is 261.2 ng/mg of protein and 245.9 ng/mg of protein and 366.9 ng/mg of protein; the “Progerin Difference (%)” value is given as −73.8%. Further, in assay [1], the “neo synthesis of progerin” value is “significantly decrease”. Also, in assay [3] (10 ng/ml), the “Procollagen % DMSO” value is on record as 104.6%; the “Procollagen Average” value is on record as 54.9 pg/mg of protein; the “Procollagen, individual values” is 45.6 pg/mg of protein and 48.7 pg/mg of protein and 70.3 pg/mg of protein; the “Procollagen Difference (%)” value is 4.6%. In assay [3] (100 ng/ml), the “Procollagen % DMSO” value came out at 150.2%; the “Procollagen Average” value was 78.8* pg/mg of protein; the “Procollagen, individual values” was 74.0 pg/mg of protein and 75.9 pg/mg of protein and 86.4 pg/mg of protein; the “Procollagen Difference (%)” value came out at 50.2%. Further, in assay [3] (500 ng/ml), the “Procollagen % DMSO” value is 175.3%; the “Procollagen Average” value is 91.9* pg/mg of protein; the “Procollagen, individual values” is 90.6 pg/mg of protein and 95.4 pg/mg of protein and 89.8 pg/mg of protein; the “Procollagen Difference (%)” value came out at 75.3%.

Source of the values: US9463338B2, “Derivatives of the sinapinic acid” (PHARMASYNTHESE, priority 2013, dated 2016).
